Measurements taken from patent publication USRE47689E1, “Compounds for treating spinal muscular atrophy” (PTC Therapeutics, Inc., priority 2011, dated 2019).

What was measured:
[1] = test system: SMN2 minigene (full length SMN2 minigene mRNA containing SMN2 exon 7); assay: SMN2 minigene mRNA splicing RT-qPCR assay in cultured cells; type: cell-based, human; conditions: Homo sapiens, HEK293-H; HEK293H cells stably transfected with SMN2-A minigene; 24 hours; 7-point concentration curve; 1.5-fold relative to vehicle-treated cells; read-out: EC1.5x for production of full length SMN2 mRNA
Outline: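 Read-out: full-length (exon 7-included) SMN2 minigene mRNA by multiplex RT-qPCR with GAPDH, efficiency-corrected (1+E)^−Ct, GAPDH-normalized and divided by vehicle. Stably transfected HEK293H cells, 24 h compound exposure, duplicates per concentration. Value is EC1.5x, reported as star ranges.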

Smn protein = Smn protein assay in cultured cells (SMN HTRF); type: cell-based, human; conditions: 48 hours; for EC1.5x (concentration giving 1.5-fold Smn protein increase): SMA Type 1 patient fibroblast cells (GM03813), 7-point concentration curve, SMN HTRF, concentration producing 1.5 times Smn protein vs DMSO vehicle control, read-out: EC1.5x for Smn protein expression; for maximum fold (Fold) increase of Smn protein: SMA patient fibroblast cells, 7-point concentration data, fold increase relative to vehicle control (SMN HTRF)
Outline: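 Lysates in RIPA with protease inhibitors are incubated overnight at room temperature with HTRF anti-SMN antibodies. EC1.5x is derived from fold increase in ΔF over vehicle.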

Row | Compound | melting point | EC (1.5-fold) [1] [µM] | EC1.5x (concentration giving 1.5-fold Smn protein increase) (Smn protein) [nM] | maximum fold (Fold) increase of Smn protein (Smn protein)
1 | Cc1cn2cc(-c3cc4ccc(N5CCN[C@@H](C)C5)cc4oc3=O)cc2cn1 [Compound 647, 7-[(3S)-3-methylpiperazin-1-yl]-3-(3-methylpyrrolo[1,2-a]pyrazin-7-yl)-2H-chromen-2-one] | 202 to 204 °C | < 0.1 | < 300 | **** (fold increase between >1.5 and ≤1.65)
2 | Cc1ccn2cc(-c3cc4ccc(N5CCN(C)[C@@H](C)C5)cc4oc3=O)nc2c1 [Compound 379, 7-[(3S)-3,4-dimethylpiperazin-1-yl]-3-(7-methylimidazo[1,2-a]pyridin-2-yl)-2H-chromen-2-one] | 231 to 241 °C | 0.3 to 1 |  | *** (fold increase between >1.35 and ≤1.5)
3 | C[C@@H]1CN(c2ccc3cc(-c4nc(C(F)(F)F)cs4)c(=O)oc3c2)CCN1 [Compound 240, 7-[(3R)-3-methylpiperazin-1-yl]-3-[4-(trifluoromethyl)-1,3-thiazol-2-yl]-2H-chromen-2-one] | 234 to 238 °C | 1 to 3 |  | * (maximum fold increase of ≤1.2)
4 | C[C@H]1CN(c2ccc3cc(-c4nc(C(F)(F)F)cs4)c(=O)oc3c2)CCN1 [Compound 239, 7-[(3S)-3-methylpiperazin-1-yl]-3-[4-(trifluoromethyl)-1,3-thiazol-2-yl]-2H-chromen-2-one] | 234 to 238 °C | 1 to 3 |  | * (maximum fold increase of ≤1.2)
5 | Cc1cc(F)c2nc(-c3cc4ccc(N5CC6CCC5CN6)cc4oc3=O)cn2c1 (stereo not shown) [Compound 600, 7-(2,5-diazabicyclo[2.2.2]oct-2-yl)-3-(8-fluoro-6-methylimidazo[1,2-a]pyridin-2-yl)-2H-chromen-2-one] | 246 to 256 °C | < 0.1 | < 300 | ***** (fold increase >1.65)
6 | Cc1cc(F)c2nc(-c3cc4ccc(N5CCN(C)[C@H](C)C5)cc4oc3=O)cn2c1 [Compound 533, 7-[(3R)-3,4-dimethylpiperazin-1-yl]-3-(8-fluoro-6-methylimidazo[1,2-a]pyridin-2-yl)-2H-chromen-2-one] | 269 to 277 °C | < 0.1 | < 300 | **** (fold increase between >1.5 and ≤1.65)
7 | CN1CCN(c2ccc3cc(-c4cn5ccncc5n4)c(=O)oc3c2)CC1 [Compound 457, 3-(imidazo[1,2-a]pyrazin-2-yl)-7-(4-methylpiperazin-1-yl)-2H-chromen-2-one] | 246 to 249 °C | 0.1 to 0.3 |  | ** (fold increase between >1.2 and ≤1.35)
8 | CC(=O)O.CCN1CCN(c2ccc3cc(-c4ccc5nc(C)sc5c4)c(=O)oc3c2)C[C@@H]1C [Compound 777, 7-[(3S)-4-ethyl-3-methylpiperazin-1-yl]3-(2-methyl-1,3-benzothiazol-6-yl)-2H-chromen-2-one acetate] | 180 to 182 °C | 3 to 30 |  | * (maximum fold increase of ≤1.2)
9 | Cc1nccn2cc(-c3cc4ccc(N5C[C@@H](C)N[C@@H](C)C5)cc4oc3=O)nc12 [Compound 552, 7-[(3R,5S)-3,5-dimethylpiperazin-1-yl]-3-(8-methylimidazo[1,2-a]pyrazin-2-yl)-2H-chromen-2-one] | 250 to 258 °C | < 0.1 | < 300 | **** (fold increase between >1.5 and ≤1.65)
10 | CN1CCCN(c2ccc3cc(-c4cn5ccsc5n4)c(=O)oc3c2)CC1 [Compound 203, 3-(imidazo[2,1-b][1,3]thiazol-6-yl)-7-(4-methyl-1,4-diazepan-1-yl)-2H-chromen-2-one] | 228 to 231 °C | 0.1 to 0.3 | 300 to 1000 | **** (fold increase between >1.5 and ≤1.65)
11 | Cc1nc(Cl)cn2cc(-c3cc4ccc(N5CCN6CCC[C@@H]6C5)cc4oc3=O)nc12 [Compound 710, 3-(6-chloro-8-methylimidazo[1,2-a]pyrazin-2-yl)-7-[(8aR)-hexahydropyrrolo[1,2-a]pyrazin-2(1H)-yl]-2H-chromen-2-one] | 268 to 272 °C | < 0.1 |  | ** (fold increase between >1.2 and ≤1.35)
12 | Cc1cn2cc(-c3cc4ccc(N5CCN(C6CC6)CC5)cc4oc3=O)nc2c(C)n1 [Compound 762, 7-(4-cyclopropylpiperazin-1-yl)-3-(6,8-dimethylimidazo[1,2-a]pyrazin-2-yl)-2H-chromen-2-one] | 263 to 266 °C | < 0.1 | 300 to 1000 | **** (fold increase between >1.5 and ≤1.65)
13 | COc1cc(OC)cc(-c2cc3ccc(N4CCCNCC4)cc3oc2=O)c1 [Compound 387, 7-(1,4-diazepan-1-yl)-3-(3,5-dimethoxyphenyl)-2H-chromen-2-one] | 238 to 240 °C | 3 to 30 |  | * (maximum fold increase of ≤1.2)
14 | CN1CCCN(c2ccc3cc(-c4nc(C(F)(F)F)cs4)c(=O)oc3c2)CC1 [Compound 238, 7-(4-methyl-1,4-diazepan-1-yl)-3-[4-(trifluoromethyl)-1,3-thiazol-2-yl]-2H-chromen-2-one] | 218 to 225 °C | 1 to 3 |  | * (maximum fold increase of ≤1.2)

Second part, led by results:

Row | melting point | Compound | EC (1.5-fold) [1] [µM] | EC1.5x (concentration giving 1.5-fold Smn protein increase) (Smn protein) [nM] | maximum fold (Fold) increase of Smn protein (Smn protein)
15 | 241 to 250 °C | O=c1oc2cc(N3CCNCC3)cc(F)c2cc1-c1cn2cccc(Cl)c2n1 [Compound 392, 3-(8-chloroimidazo[1,2-a]pyridin-2-yl)-5-fluoro-7-(piperazin-1-yl)-2H-chromen-2-one] | 0.3 to 1 |  | ** (fold increase between >1.2 and ≤1.35)
16 | 157 to 161 °C | CC(C)NCc1ccc2cc(-c3nc4c(Cl)cccc4s3)c(=O)oc2c1 [Compound 10, 3-(4-chloro-1,3-benzothiazol-2-yl)-7-[(propan-2-ylamino)methyl]-2H-chromen-2-one] | 0.3 to 1 |  | * (maximum fold increase of ≤1.2)
17 | 221 to 229 °C | O=C(O)C(F)(F)F.O=c1oc2cc(N3CCNCC3)ccc2cc1-c1nc(C(F)(F)F)cs1 [Compound 52, 7-(piperazin-1-yl)-3-[4-(trifluoromethyl)-1,3-thiazol-2-yl]-2H-chromen-2-one trifluoroacetate] | 0.3 to 1 |  | * (maximum fold increase of ≤1.2)
18 | 202 to 207 °C | Cc1cn2cc(-c3cc4ccc(OCCNC(C)C)cc4oc3=O)nc2c(C)n1 [Compound 877, 3-(6,8-dimethylimidazo[1,2-a]pyrazin-2-yl)-7-[2-(propan-2-ylamino)ethoxy]-2H-chromen-2-one] | < 0.1 | 300 to 1000 | *** (fold increase between >1.35 and ≤1.5)
19 | 195 to 202 °C | Cc1cn2cc(-c3cc4ccc(OCCN5CC[C@@H](O)C5)cc4oc3=O)nc2c(C)n1 [Compound 941, 3-(6,8-dimethylimidazo[1,2-a]pyrazin-2-yl)-7-{2-[(3R)-3-hydroxypyrrolidin-1-yl]ethoxy}-2H-chromen-2-one] | < 0.1 | 1000 to 3000 | **** (fold increase between >1.5 and ≤1.65)
20 | 225 to 230 °C | O=c1oc2cc(N3CCCNCC3)ccc2cc1-c1cn2ccsc2n1 [Compound 206, 7-(1,4-diazepan-1-yl)-3-(imidazo[2,1-b][1,3]thiazol-6-yl)-2H-chromen-2-one] | 0.3 to 1 |  | ** (fold increase between >1.2 and ≤1.35)
21 | 168 to 170 °C | COc1ccc(-c2cc3ccc(N4CCNCC4)cc3oc2=O)cc1OC [Cpd 316, 3-(3,4-dimethoxyphenyl)-7-(piperazin-1-yl)-2H-chromen-2-one] | 0.3 to 1 |  | ** (fold increase between >1.2 and ≤1.35)
22 | 178 to 180 °C | O=c1oc2cc(N3CCCNCC3)ccc2cc1-c1cc2ccccn2n1 [Compound 192, 7-(1,4-diazepan-1-yl)-3-(pyrazolo[1,5-a]pyridin-2-yl)-2H-chromen-2-one] | 0.3 to 1 |  | ** (fold increase between >1.2 and ≤1.35)
23 | 240 °C (dec.) | COc1ccc(-c2cc3c(F)cc(N4CCNCC4)cc3oc2=O)cc1OC [Compound 404, 3-(3,4-dimethoxyphenyl)-5-fluoro-7-(piperazin-1-yl)-2H-chromen-2-one] | 0.3 to 1 | 1000 to 3000 | **** (fold increase between >1.5 and ≤1.65)
24 | 196 to 202 °C | Cc1cn2cc(-c3cc4ccc(O[C@@H]5CCN(C(C)CO)C5)cc4oc3=O)nc2c(C)n1 (stereo partly drawn) [Compound 893, 3-(6,8-dimethylimidazo[1,2-a]pyrazin-2-yl)-7-{[(3R)-1-(1-hydroxypropan-2-yl)pyrrolidin-3-yl]oxy}-2H-chromen-2-one] | < 0.1 | < 300 | ***** (fold increase >1.65)
